The values below come from the Kinase Knowledgebase extract (Sharma et al. 2016).

The target in test [1] is MAPK14 (human) (UniProt Q16539). The test is described as follows: Inhibition of MAPK14 Kinase Activity by EGFRP Assay.
Test [2] has the same target. The test is described as follows: Inhibition of LPS Stimulated TNF Production by U937 Cells. Conditions: for inhibition: concentration not given here.
The target is the same in test [3]. Description: Inhibition of MAPK14 Kinase Activity by PHAS-I Assay. Conditions: for inhibition: concentration not given here.

Chain of MAPK14 (human) (Q16539 whole entry, looked up): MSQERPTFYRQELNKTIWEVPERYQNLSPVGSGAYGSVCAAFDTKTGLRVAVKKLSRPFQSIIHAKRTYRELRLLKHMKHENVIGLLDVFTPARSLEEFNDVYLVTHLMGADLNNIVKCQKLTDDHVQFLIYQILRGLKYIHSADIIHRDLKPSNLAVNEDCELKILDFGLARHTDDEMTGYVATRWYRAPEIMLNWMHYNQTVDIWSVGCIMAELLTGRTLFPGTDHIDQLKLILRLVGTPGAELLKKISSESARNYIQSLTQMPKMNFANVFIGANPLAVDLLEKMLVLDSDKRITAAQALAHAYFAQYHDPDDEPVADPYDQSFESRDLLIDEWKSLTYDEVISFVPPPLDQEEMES

Regarding `Cc1cccc(-c2c(-c3ccnc(C)c3)cnn2C)c1`, the 50% inhibitory concentration (IC50) on MAPK14 (human) [1] amounted to 104 nM.
Consider `Fc1ccc(-c2n[nH]cc2-c2ccnc(NCCn3ccnc3)c2)cc1`, for which the figures for the IC50 at MAPK14 (human) [2] and against MAPK14 (human) [1] were 7.4 nM and below 10 nM, respectively.
`Cc1cc(-c2cn(C)nc2-c2cccc(Cl)c2)ccn1.Cc1cc(-c2cnn(C)c2-c2cccc(Cl)c2)ccn1`: the IC50 against MAPK14 (human) [1] is 44 nM.
`Cn1cc(-c2ccncc2)c(-c2cccc(Cl)c2)n1.Cn1ncc(-c2ccncc2)c1-c1cccc(Cl)c1` gave an IC50 against MAPK14 (human) [1] of 103 nM.
As to `O=C(NCCCc1[nH]nc(-c2ccc(F)cc2)c1-c1ccncc1)C1CCC1`, at MAPK14 (human) [2], the concentration for half-maximal inhibition (IC50) was 990 nM. The inhibition at MAPK14 (human) [3] came to 66%.
As for `CCOC(=O)COc1cccc(NC(=O)Cn2nc(-c3ccc(F)cc3)c(-c3ccncc3)c2C)c1`, the inhibition on MAPK14 (human) [2] is 36%; against MAPK14 (human) [3], 83%.
With `CC[C@H](C)NC(=O)Cn1nc(-c2ccc(F)cc2)c(-c2ccncc2)c1C`, the inhibition amounted to 38% against MAPK14 (human) [2] and 76% at MAPK14 (human) [3].
On to `O=S(=O)(Cc1ccccc1)NCCc1[nH]nc(-c2ccc(F)cc2)c1-c1ccncc1`, for which the inhibition against MAPK14 (human) [2] was found to be 58%; against MAPK14 (human) [3] it was 96%.
Consider `O=C(CCC1CC=CC1)NCc1[nH]nc(-c2ccc(F)cc2)c1-c1ccncc1`, for which the figures for the inhibition against MAPK14 (human) [2] and against MAPK14 (human) [3] were 84% and 71%, respectively.
The matching figures for `CCCCS(=O)(=O)NCCc1[nH]nc(-c2ccc(F)cc2)c1-c1ccncc1`: 53% and 84%.
With `COc1cccc(CC(=O)NCCc2[nH]nc(-c3ccc(F)cc3)c2-c2ccncc2)c1`, the inhibition against MAPK14 (human) [2] amounted to 31%; against MAPK14 (human) [3] it was 63%.
In the same order, the values of `O=C(NCCc1[nH]nc(-c2ccc(F)cc2)c1-c1ccncc1)Nc1cccc2ccccc12` are 39% and 83%.
Take `N#Cc1ccc(C(=O)NCc2[nH]nc(-c3ccc(F)cc3)c2-c2ccncc2)cc1`: the inhibition on MAPK14 (human) [2] is 40%; at MAPK14 (human) [3] it was 53%.
On to `Cc1cccc(OC(=O)c2ccc(NC(=O)Cn3nc(-c4ccc(F)cc4)c(-c4ccncc4)c3C)cc2)c1`, for which the results for the inhibition at MAPK14 (human) [2] and at MAPK14 (human) [3] were 7% and 89%, respectively.
`O=C(NCCc1[nH]nc(-c2ccc(F)cc2)c1-c1ccncc1)N1CCCC1`: the inhibition on MAPK14 (human) [2] is 37%; on MAPK14 (human) [3] it was 76%.
As to `COC(=O)[C@H](CCSC)NC(=O)Cn1nc(-c2ccc(F)cc2)c(-c2ccncc2)c1C`, the inhibition is 36% at MAPK14 (human) [2] and 58% at MAPK14 (human) [3].
In the same order, the values of `O=S(=O)(/C=C/c1ccccc1)NCCc1[nH]nc(-c2ccc(F)cc2)c1-c1ccncc1` are 10% and 58%.
On MAPK14 (human) [2], `CNC(=O)CC[C@H](NC(C)=O)c1[nH]nc(-c2ccc(F)cc2)c1-c1ccncc1` displayed an inhibition of 46%. The compound further registered an IC50 against MAPK14 (human) [3] of 660 nM.
Consider `CCC(C(=O)NCc1[nH]nc(-c2ccc(F)cc2)c1-c1ccncc1)c1ccccc1` (stereo unspecified), for which the inhibition at MAPK14 (human) [2] amounted to 76%; against MAPK14 (human) [3], 94%.
For the compound `O=C(NCCc1[nH]nc(-c2ccc(F)cc2)c1-c1ccncc1)c1cccc(Br)c1`, the inhibition on MAPK14 (human) [2] came out at 26%; against MAPK14 (human) [3] it was 0%.
In the same order, the values of `O=C(NCCc1[nH]nc(-c2ccc(F)cc2)c1-c1ccncc1)Nc1cc(Cl)ccc1Cl` are 39% and 61%.
Turning to `O=S(=O)(NCCCc1[nH]nc(-c2ccc(F)cc2)c1-c1ccncc1)C(F)(F)F`, the results for the inhibition against MAPK14 (human) [2] and against MAPK14 (human) [3] were 68% and 74%, respectively.
The matching figures for `COc1cc(OC)c(NC(=O)NCCc2[nH]nc(-c3ccc(F)cc3)c2-c2ccncc2)cc1Cl`: 32% and 82%.
`O=C(NCCc1[nH]nc(-c2ccc(F)cc2)c1-c1ccncc1)Nc1ccc(Br)cc1`: the inhibition on MAPK14 (human) [2] was determined as 29%; at MAPK14 (human) [3], 51%.
In the same order, the values of `O=C(NCCc1[nH]nc(-c2ccc(F)cc2)c1-c1ccncc1)Nc1cc(Cl)cc(Cl)c1` are 21% and 44%.
At MAPK14 (human) [2], `C[C@H](NS(=O)(=O)c1ccccc1C(=O)O)c1[nH]nc(-c2ccc(F)cc2)c1-c1ccncc1` gave an inhibition of 70%. For the same compound, the IC50 at MAPK14 (human) [3] was 760 nM.
In the same order, the values of `C[C@@H](NS(=O)(=O)c1cc(Cl)cc(Cl)c1O)c1[nH]nc(-c2ccc(F)cc2)c1-c1ccncc1` are 71% and 1110 nM.
Take `CCCS(=O)(=O)NCCc1[nH]nc(-c2ccc(F)cc2)c1-c1ccncc1`: the inhibition against MAPK14 (human) [2] worked out at 35%; against MAPK14 (human) [3], 82%.
The matching figures for `CC(C)c1ccccc1NC(=O)NCCc1[nH]nc(-c2ccc(F)cc2)c1-c1ccncc1`: 29% and 80%.
The matching figures for `O=C(NCCc1[nH]nc(-c2ccc(F)cc2)c1-c1ccncc1)Nc1ccc(-c2ccccc2)cc1`: 26% and 35%.
In the same order, the values of `Cc1c(-c2ccncc2)c(-c2ccc(F)cc2)nn1CC(=O)NC(C)Cc1c[nH]c2ccccc12` (stereo unspecified) are 28% and 65%.
Consider `Cc1cccc(S(=O)(=O)N[C@H](C)c2[nH]nc(-c3ccc(F)cc3)c2-c2ccncc2)c1`, for which the inhibition against MAPK14 (human) [2] was 96%. For the same compound, the IC50 against MAPK14 (human) [3] amounted to 25 nM.

A word on the IC50: it is the concentration that gives 50% inhibition. High values mean weaker potency, low ones greater potency. In general, inhibition refers to the share of the control response that was lost under treatment.
